90 compounds from a melting point compilation (Tetko et al.; mined from patent text by program, amines drawn as free bases though some values may be those of a salt) can be followed below.

Molecules are shown by their SMILES. Bounds are passed on as bounds.

Take `COCCc1nc2c(N)nc3cc(-c4cncc(CO)c4)ccc3c2n1CC(C)C`: the melting point lay within 202 to 204 °C.
`N#Cc1cc(C(=O)NNC(=O)c2occ(-c3ccncc3)c2-c2ccccc2)ccc1O` showed a melting point of 179 to 181 °C.
In turn, `O=c1[nH]c2cc(Cl)ccc2c(=O)c(-c2ccco2)c1O` came in with a melting point of 233 to 234 °C.
Turning to `CCCCc1nc(CO)c(Br)[nH]1`, the melting point came to 160 °C.
Under `CC(C)n1nc(-c2sc(NC(=O)c3ccc(CN4CCCC4)cc3)nc2-c2ccccc2)ccc1=O` stands 221 to 222 °C; under `OC(Cn1ccnc1)(c1ccc(Cl)cc1)C1(n2cnc(Cl)n2)CC1` (stereo not given), 231 °C.
The compound `CN(C)C(=O)Nc1ccc(SCc2nc(Cl)ccc2Cl)cc1` showed a melting point of 112 to 114 °C.
The same measure for `O=CN1CCC(C(=O)O)=Cc2cc(Br)ccc21`: 248 to 250 °C; for `O=C1NCCSc2ccsc21`: 186 to 188 °C; for `COc1cc(OC)cc(OC(=S)N(C)C)c1`: 77 to 78 °C.
`CC(=O)OCC(C)C1CCC2C3CC=C4CC(OC5CCCCO5)CC(OC5CCCCO5)C4(C)C3CCC12C` (stereo not given): the melting point was in the range of 155 to 161 °C.
In turn, `O=C(COc1ccccc1C1NC(C(=O)O)CS1)NCCO[N+](=O)[O-]` (stereo not given) had a melting point of 99 to 103 °C.
On to `NCC(=O)Nc1sccc1C(=O)c1ccccc1Cl`, for which the melting point fell in the range of 156 to 158 °C.
`COc1cc(N)c(I)cc1C(=O)NC1(C)CCN(CCCOc2ccc(F)cc2)CC1` had a melting point of 144 °C.
As to `COc1nc(=O)[nH]cc1C`, the melting point lay in the range of 196 to 199 °C.
`CS(=O)(=O)C(=C1CN(C(c2ccccc2)c2ccccc2)C1)c1cccc(I)c1`: the melting point came to 198 °C.
Compound `CCOC(=O)c1csc(C#Cc2ccc(OC)c(C34CC5CC(CC(C5)C3)C4)c2)c1` displayed a melting point of 88 to 90 °C.
`Cc1nc2ccc(C#N)cc2[nH]1` returned a melting point of 238 to 240 °C.
As for `CC(c1ccc(Cl)cc1)N1C(=O)CC(Br)C1=O` (stereo not given), the melting point is 96 °C.
Under `O=C(O)c1cccc(-c2nc(-c3ccc(C(F)(F)F)cc3)cs2)c1` stands 230 to 231 °C; under `CC(=O)C1=C(O)C(=C(C)Nc2cccc(NS(C)(=O)=O)c2)C(=O)OC1=O`, 196 °C.
Consider `COc1cc(CCCN(C)Cc2ccc(OC)c(OC)c2)ccc1NC(=O)c1cccc2c(=O)c3cccc(C)c3[nH]c12`, for which the melting point worked out at 111 °C.
`COC(=O)c1ccc(-c2nnc(C)o2)s1`: the melting point is 142 to 145 °C.
As for `Clc1ccc(C2Nc3ccccc3S2)cc1` (stereo not given), the melting point lay within 85 to 87 °C.
`Nc1nc2c(Cl)ncnc2n1C1OC(CO)C(O)C1O` (stereo not given) returned a melting point of 214 to 217 °C.
`COC(=O)c1c(Oc2ccccc2[N+](=O)[O-])c2ccccc2n1C` gave a melting point of 119 to 121 °C.
`O=S(=O)(CCCl)C1=NN(S(=O)(=O)CCCl)CS1`: the melting point was found to be 143 °C.
Consider `Cn1nnnc1-c1cn(C)c2cc(Cl)c(F)cc2c1=O`, for which the melting point lay in the range of 264 to 267 °C.
Turning to `COCc1cnc2c([N+](=O)[O-])cccc2c1Cl`, the melting point is 91 to 94 °C.
The same measure for `CCCN(CCC)C(=O)c1cc(C)cc(C(=O)N[C@@H](Cc2cc(F)cc(F)c2)[C@@H](O)CCN)c1`: 61 to 72 °C.
`CN(C)CCNC(=O)c1cccc([N+](=O)[O-])c1` gave a melting point of 89 to 90 °C.
Compound `CC=Cn1c2ccccc2c2ccccc21` displayed a melting point of 57 to 58 °C.
Regarding `COC(=O)C1=CC(NC(=O)OC(C)(C)C)CO1` (stereo not given), the melting point is 94 to 96 °C.
The compound `CN1Cc2c(-c3ncc(CN4CCCCC4)o3)ncn2-c2ccc(F)cc2C1=O` gave a melting point of 191 to 193 °C.
In turn, `COC(=O)C(/C(=C\c1ccccc1)C(N)=O)=C(\C)c1cc(OC)c(OC)c(OC)c1` showed a melting point of 118 to 120 °C.
In the case of `COC(=O)C1=C(C)NC(C)=C(C(=O)OCCN2CCN(C(c3ccc(Cl)cc3)c3ccc(Cl)cc3)CC2)C1c1cccc(Cl)c1Cl` (stereo not given), the melting point lay within 104 to 107 °C.
Take `Oc1ccc2c(c1O)C(Cc1ccnc3ccccc13)c1ccccc1-2` (stereo not given): the melting point fell in the range of 244 to 246 °C.
The compound `CCCn1nc(C#N)cc1CC(C)(C)NC(=O)OC(C)(C)C` displayed a melting point of 115 to 116 °C.
Regarding `CC(C)(C)OC(=O)NCCCCCCNS(=O)(=O)c1ccc(Oc2ccccc2)cc1`, the melting point is 77 to 78 °C.
In the case of `CNC(=O)Nc1cccc(C2=NC(C)(C)Cc3cc(OC)c4c(c32)CC(C)(C)O4)c1`, the melting point lay in the range of 125 to 127 °C.
Under `Cc1cnc(NC(=O)c2cc(Oc3cnc(C(=O)N(C)C)cn3)cc(O[C@@H](C)COC(F)F)c2)cn1` stands 75 °C; under `O=C(O)C=CC(=O)NCCC(F)=C(F)F`, 64 to 66 °C.
The same measure for `COC(=O)/C(=C/c1ccc(OCCN(C)c2nc3ccccc3o2)cc1)OCC(=O)O`: 111 to 112 °C; for `CCCCOc1ccc(CCCCCC(=O)O)cc1`: 39 to 40 °C.
`O=C(O)c1cc2cc([N+](=O)[O-])cc(O)c2o1`: the melting point amounted to 294 °C.
For the compound `CC(=O)Nc1ccc(Oc2ccccc2)c2c(=O)c3ccccc3n(C)c12`, the melting point lay within 252 to 254 °C.
The same measure for `COc1ccc(-c2nn(Cc3cccnc3)c(=O)cc2-c2ccncc2)cc1`: 162 °C; for `COC(=O)C(C)NC(=O)NS(=O)(=O)C=Cc1ccccc1` (stereo not given): 138 to 140 °C.
Under `Cc1ccc(S(=O)(=O)NCC[C@@H](NS(=O)(=O)c2ccc(C)cc2)C(=O)NO)cc1` stands 152 to 153 °C.
On to `COc1cc2[nH]c(=O)c3c(c2cc1OC)CCN(CCC1CCCCC1)C3`, for which the melting point was 195 to 198 °C.
Compound `O=Cc1ccc(OC2CCN(c3ccccn3)CC2)cc1` showed a melting point of 114 to 116 °C.
On to `CCCNC(=O)C(CC)Cc1ccc2c(c1)c(Cc1ccc(C(=O)O)cc1OC)cn2CCC` (stereo not given), for which the melting point was 85 to 97 °C.
Turning to `NCC1COc2cc(Cl)cc(-c3ccccc3)c2N1` (stereo not given), the melting point came to 92 °C.
For the compound `CCN1CCCC1CNC(=O)c1cc(NS(C)(=O)=O)c(C)cc1OC` (stereo not given), the melting point was 132 to 133 °C.
Under `C[C@@H](NC(=O)c1cncc(-c2ccc(Cl)cc2)c1)[C@](O)(Cn1cncn1)c1ccc(F)cc1F` stands 93 to 101 °C; under `CC(Cc1ccc(F)cc1F)C(N)=O` (stereo not given), 90 to 91 °C.
Under `CCC1c2ccc(C#N)n2-c2ccc(F)cc2N1S(=O)(=O)c1ccc(O)cc1` (stereo not given) stands 169 to 171 °C; under `NC(=O)CCCCCCCCCCC(=O)O`, 129 to 131 °C; under `CC(=O)N(C(=O)C1=NN(c2ccc(Cl)cc2)C(c2ccc(Cl)cc2)C1)c1ccc(C(F)(F)F)cc1` (stereo not given), 158 to 160 °C.
As for `COc1ccc(CCNc2ncnc3c(F)ccc(F)c23)cc1C`, the melting point lay in the range of 162 to 169 °C.
Compound `Oc1cnc2cccc(Cl)c2n1` registered a melting point above 250 °C.
Compound `CC(C)c1nc2cc(NC(=O)c3c(C(=O)N4CCCC4)cnn3C)ccn2n1` showed a melting point of 141 to 143 °C.
For the compound `CS(=O)(=O)c1ccc(-c2cc(-c3nc4ccccc4c(=O)n3-c3ccc(Cl)cc3)sc2N2CCOCC2)cc1`, the melting point was above 275 °C.
Consider `C=CC(=Cc1ccccc1)N(C)C`, for which the melting point is 72 to 74 °C.
`COc1ccc2c(c1)CCC1C2CCC2(C)C(NCCCCCCCCCCN)CCC12` (stereo not given): the melting point was in the range of 55.5 to 57.5 °C.
In turn, `CC(=O)OC1CC2=CCC3C4CCC(C(C)CCCC(C)C)C4(C)CCC3C2(C)C(OC(C)=O)C1OC(C)=O` (stereo not given) yielded a melting point of 109 to 110 °C.
For `COC(=O)c1cc(OC)cc(-c2cccc([N+](=O)[O-])c2)n1`, the melting point lay within 150 to 152 °C.
For the compound `CCOC(=O)CC(=O)c1cccc(-n2ccnn2)c1`, the melting point fell in the range of 72 to 74 °C.
`COc1ccc(C(=O)CCCN2CCC(OC(=O)c3cc(Cl)c(N)c4c3OCC4)CC2)cc1` had a melting point of 136 °C.
`COC(=O)c1sc2cncc(Oc3ccc(Cl)cc3)c2c1C`: the melting point fell in the range of 140 to 141 °C.
Compound `COc1cc(-c2ccccc2C)ccc1C(=O)N1Cc2ccc(C(=O)N(C)CC(O)C(O)C(O)C(O)CO)n2Cc2ccccc21` (stereo not given) came in with a melting point of 144 to 146 °C.
As to `CC1=C2C=c3c(cnn3CC(C)N=[N+]=[N-])=C2CC=C1` (racemic), the melting point is 70 to 72 °C.
Take `O=c1ccn(CCO)c(C(O)c2ccc(Cl)cc2)c1O` (stereo not given): the melting point lay in the range of 184 to 186 °C.
`CCC(C)(O)C1(c2cccc(OC)c2)CCN(C)CC1` (stereo not given) had a melting point of 134 to 135 °C.
On to `Cc1ccccc1C(=O)Nc1ccc(-n2nc(C(F)(F)F)cc2C2CC2)cc1`, for which the melting point is 143 to 146 °C.
As to `CCOC(=O)c1cc(C(=O)OCC)n(C(C)c2ccccn2)n1` (stereo not given), the melting point is 63 to 65 °C.
On to `COc1ccc(-c2c(C(C)=O)c(CSc3nccn3C)nc3cc(OC)c(OC)cc23)cc1OC`, for which the melting point fell in the range of 175 to 176 °C.
Under `O=C(O)COc1ccc(-c2c3ccccc3cc3sc4ccccc4c23)cc1I` stands 248 to 249 °C; under `CC(C)(CS(=O)(=O)c1ccc(Oc2ccc(OC(F)(F)F)cc2)cc1)N(O)C=O`, 128 to 129 °C.
With `CCCN(CCC)Cc1cnc(-c2ncn3c2CN(C)C(=O)c2c-3ccc(F)c2Cl)o1`, the melting point was 110 to 112 °C.
Compound `CCOC(=O)c1cn(-c2nc[nH]n2)cn1` yielded a melting point of 220 to 222 °C.
`CC(CC(=O)O)NC(=O)OCC1c2ccccc2-c2ccccc21` (stereo not given) had a melting point of 135 to 143 °C.
As for `COc1ccc(C2(C(C)NCc3ccncc3)CCC2)cc1` (stereo not given), the melting point fell in the range of 110 to 113 °C.
In the case of `CCC(C)(CC)c1nnc(N)s1`, the melting point fell in the range of 138 to 140 °C.
In turn, `CC(C)(C)c1nnc(-c2ccccn2)[nH]c1=O` yielded a melting point of 114 to 115 °C.
The same measure for `CCc1cc(C(=O)c2ccccc2Cl)c(-n2c(C)nnc2Cc2cccc(OC(N)=O)c2Cl)s1`: 134 to 136 °C; for `Cc1c(C)c2c(c(C)c1NC(=O)CC(C)(C)C)C(=O)C(C)(C)O2`: 155 to 156 °C; for `CCN1c2nc(Cl)ccc2NC(=O)c2cc(CCc3ccncc3)cnc21`: 194 to 196 °C.
Compound `COc1ccc2c(c1)Nc1cccc(S(C)(=O)=O)c1S2` displayed a melting point of 204 to 206 °C.
Under `Cc1cc(C)nc(N(CCN(C)C)C(N)=O)c1` stands 88 to 89 °C.

A word on the melting point: it is the temperature of the solid-liquid transition.
